In patent US20040242508A1, “Novel hydroxyalkyl indolocarbazole derivatives, preparation method and pharmaceutical compositions containing the same” (priority 2001, published 2004):

Key:
CDK5/p25 complex = CDK5/p25 complex (Homo sapiens, UniProt Q00535); assay: Inhibitory activity in respect of CDK5; format: biochemical; settings: CDK5 activated by p25 (1/1 mixture), measured as for CDK1/cyclin B
Method: CDK5 was expressed in E. coli in the form of a GST (Glutathione-S-transferase) fusion protein and purified on a glutathione-agarose affinity column. CDK5 is then activated by p25 (1/1 mixture), prepared in the same manner. The enzymatic activity of the CDK5/p25 complex is measured as described above for CDK1/cyclin B. The IC50 values are estimated from dose-response curves.

CDK1/cyclin B = assay: Inhibitory activity in respect of CDK-1; format: biochemical, starfish (Marthasterias glacialis); settings: histone H1 substrate, 15 μM ATP, 10 minutes at 30° C.
Method: The enzyme was purified from a starfish (Marthasterias glacialis) oocyte homogenate at M phase as described in Eur. J. Biochem, 1997, 243, 527-536 and J. Biol. Chem.,1999, 274, 11977-11986. The reaction mixture comprises, in a volume of 30 μl: 1 mg/ml of histone H1 as substrate, 15 μM [γ-^32P]ATP (3000 Ci/mmol, 1 mCi/ml), 15 mM MgCl2, 60 mM β-glycerophosphate, 15 mM p-nitrophenylphosphate, 25 mM MOPS pH=7.2, 5 mM EGTA, 1 mM DTT, 1 mM sodium vanadate, and the inhibitor at a given concentration. After 10 minutes' incubation at 30° C., 25 μl of the reaction mixture are removed and treated as described above in the GSK-3 protocol. The IC50 values are estimated from dose-response curves.

[1] = biological target: T1, Glycogen synthase kinase 3 (Rattus norvegicus, UniProt P18266); assay: Inhibitory activity in respect of GSK-3; format: biochemical; settings: GS-1 peptide substrate, 15 μM ATP, 30 minutes at 30° C.
T1 construct: made in house; host or cells: Sf9 insect cells
Method: Glycogen synthase kinase 3 was purified starting from Sf9 cells transfected as described in Eur. J. Biochem., 1992, 305-311. The reaction mixture comprises, in a final volume of 30 μl: 1 mg/ml of BSA, 10 mM DTT, 6.7 μM GS-1 peptide as substrate, 15 μM [γ-^32P]ATP (3000 Ci/mmol, 1 mCi/ml), 10 mM MgCl2, 1 mM EGTA, 25mM Tris-HCl pH=7.5, 50 μg/ml of heparin, and the inhibitor at a given concentration. After 30 minutes at 30° C., 25 μl of the mixture are deposited on Whatman® P81 phosphocellulose paper filters, which are then washed 5 times with 10 ml of phosphoric acid (10 ml/l). The radioactivity of the filters is then counted in the presence of 1 ml of scintillation liquid. The IC50 values are estimated from dose-response curves.

Sequence of CDK5/p25 complex (Q00535 whole entry, species assumed, the tested form may be a part): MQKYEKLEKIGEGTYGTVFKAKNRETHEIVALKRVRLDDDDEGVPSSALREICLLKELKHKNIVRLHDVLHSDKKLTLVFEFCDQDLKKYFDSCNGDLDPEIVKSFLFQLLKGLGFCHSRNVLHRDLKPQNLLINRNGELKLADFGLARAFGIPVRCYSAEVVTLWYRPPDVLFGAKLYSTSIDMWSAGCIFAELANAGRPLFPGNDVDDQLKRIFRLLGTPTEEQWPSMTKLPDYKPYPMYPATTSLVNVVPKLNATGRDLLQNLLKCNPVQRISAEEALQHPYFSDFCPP
Sequence of CDK5/p25 complex (Q15078 99-307 partner limits assumed, species assumed): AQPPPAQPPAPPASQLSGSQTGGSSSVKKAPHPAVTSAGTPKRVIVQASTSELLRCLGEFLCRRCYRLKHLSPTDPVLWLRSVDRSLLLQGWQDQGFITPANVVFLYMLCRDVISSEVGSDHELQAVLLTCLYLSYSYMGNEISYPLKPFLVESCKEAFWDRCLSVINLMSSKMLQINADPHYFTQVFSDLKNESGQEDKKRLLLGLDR
T1 sequence (P18266 whole entry): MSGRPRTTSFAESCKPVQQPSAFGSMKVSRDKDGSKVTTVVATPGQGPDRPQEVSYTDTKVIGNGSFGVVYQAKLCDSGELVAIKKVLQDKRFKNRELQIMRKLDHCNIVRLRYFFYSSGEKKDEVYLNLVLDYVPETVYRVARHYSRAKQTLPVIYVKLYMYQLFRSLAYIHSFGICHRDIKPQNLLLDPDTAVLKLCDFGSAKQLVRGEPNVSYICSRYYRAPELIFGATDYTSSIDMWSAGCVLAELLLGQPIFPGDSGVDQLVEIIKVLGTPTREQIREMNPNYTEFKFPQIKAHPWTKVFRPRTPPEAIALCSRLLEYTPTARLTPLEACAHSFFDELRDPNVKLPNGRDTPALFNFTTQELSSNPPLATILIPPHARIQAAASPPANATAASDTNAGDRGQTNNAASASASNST

IC50 (CDK5/p25 complex): > 5 µM | IC50 (CDK1/cyclin B): > 5 µM | IC50 [1]: 0.03 µM
Structure (SMILES): CO[C@H]1[C@H](O)[C@@H](O)[C@H](n2c3ccc(CO)cc3c3c4c(c5c6cc(CO)ccc6[nH]c5c32)C(=O)NC4=O)O[C@@H]1CO [Example 1, 3,9-bis(hydroxymethyl)-1 2-(4-O-methyl-β-D-glucopyranosyl)-12,13-dihydro-5H-indolo[2,3-a]pyrrolo[3,4-c]carbazole-5,7(6H)-dione]
